Drawing on patent US20250034153A1, “TRIAZOLOPYRIMIDINES AS A2A / A2B INHIBITORS” (Incyte Corporation, priority 2019, published 2025), this text covers Ki and EC50 for 19 compounds.

Experiment [1] concerns the target Adenosine A2A (Homo sapiens (Human), UniProt P29274). Put plainly: A2A Tag-lite HTRF assay (Example C). The following applies: Tag-lite Adenosine A2A labeled cells, Red antagonist fluorescent ligand 12.5 nM, one-site competitive binding; read-out: A2A_Ki. On the procedure: Example C. A2A Tag-Lite® HTRF Assay
Assays were conducted in black low volume 384-well polystyrene plates (Greiner 784076-25) in a final volume of 10 μL. Test compounds were first serially diluted in DMSO and 100 nl added to the plate wells before the addition of other reaction components. The final concentration of DMSO was 1%. Tag-lite® Adenosine A2A labeled cells (CisBio C1TT1A2A) were diluted 1:5 into Tag-lite buffer (CisBio LABMED) and spun 1200 g for 5 mins. The pellet was resuspended at a volume 10.4× the initial cell suspension volume in Tag-lite buffer, and Adenosine A2A Receptor Red antagonist fluorescent ligand (CisBio L0058RED) added at 12.5 nM final concentration. 10 ul of the cell and ligand mix was added to the assay wells and incubated at room temperature for 45 minutes before reading on a PHERAstar FS plate reader (BMG Labtech) with HTRF 337/620/665 optical module. Percent binding of the fluorescent ligand was calculated; where 100 nM of A2A antagonist control ZM 241385 (Tocris 1036) displaces the ligand 100% and 1% DMSO has 0% displacement. The % binding data versus the log of the inhibitor concentration was fitted to a one-site competitive binding model (GraphPad Prism version 7.02) where the ligand constant=12.5 nM and the ligand Kd=1.85 nM.
On the technique in general: Time-resolved FRET reads energy transfer from a long-lived donor to a nearby acceptor.

Experiment [2] has as its target human adenosine A2B receptor (Homo sapiens (Human), UniProt P29275). Put plainly: Adenosine A2B receptor cyclic AMP GS assay (Example B). The experiment is classed as cell-based. The conditions noted are these: HEK-293 cells expressing human A2B, agonist NECA 12 nM, cAMP accumulation (FRET); read-out: A2B_cAMP_EC50. On the procedure: Example B. Adenosine A2B Receptor Cyclic AMP GS Assay
Stably transfected HEK-293 cells expressing the human adenosine A2B receptor (Perkin Elmer) were maintained in MEM culture medium with 10% FBS and 100 μg/ml Geneticin (Life Technologies). 18 to 24 hours prior to assay, geneticin was removed from culture. The cisbio cAMP-GS Dynamic kit utilizing the FRET (Fluorescence Resonance Energy Transfer) technology was used to measure cAMP accumulation in the cells. Compounds of the present disclosure at an appropriate concentration were mixed with 10000 cells/well in white 96 well half area plates (Perkin Elmer) for 30 min at RT gently shaking. Agonist, NECA (R&D Technologies) at 12 nM was added to each well for 60 min at RT gently shaking. Detection reagents, d2-labeled cAMP (acceptor) and anti-cAMP cryptate (donor) were added to each well for 60 min at RT gently shaking. Plates were read on Pherastar (BMG Labtech), fluorescence ratio 665/620 was calculated and EC50 determination was performed by fitting the curve of percent of control versus the log of the compound concentration using GraphPad Prism.
(In general: Cyclic AMP is a second messenger, typically raised through Gs and lowered through Gi signalling.)

Each structure is given as a SMILES string. pEC50, pKi: −log10 of the molar value.

Sequence of Adenosine A2A (P29274 whole entry): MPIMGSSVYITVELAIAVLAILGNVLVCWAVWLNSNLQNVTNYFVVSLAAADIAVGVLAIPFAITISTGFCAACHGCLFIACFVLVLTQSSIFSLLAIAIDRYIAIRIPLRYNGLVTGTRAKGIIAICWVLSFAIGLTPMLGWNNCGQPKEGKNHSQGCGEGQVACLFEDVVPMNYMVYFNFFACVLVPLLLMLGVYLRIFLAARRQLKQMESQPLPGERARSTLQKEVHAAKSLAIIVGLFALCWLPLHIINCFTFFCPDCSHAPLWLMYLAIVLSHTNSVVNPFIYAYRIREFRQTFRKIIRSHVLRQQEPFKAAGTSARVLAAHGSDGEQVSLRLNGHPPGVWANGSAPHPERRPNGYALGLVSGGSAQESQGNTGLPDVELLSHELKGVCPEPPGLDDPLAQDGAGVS
Sequence of human adenosine A2B receptor (P29275 whole entry): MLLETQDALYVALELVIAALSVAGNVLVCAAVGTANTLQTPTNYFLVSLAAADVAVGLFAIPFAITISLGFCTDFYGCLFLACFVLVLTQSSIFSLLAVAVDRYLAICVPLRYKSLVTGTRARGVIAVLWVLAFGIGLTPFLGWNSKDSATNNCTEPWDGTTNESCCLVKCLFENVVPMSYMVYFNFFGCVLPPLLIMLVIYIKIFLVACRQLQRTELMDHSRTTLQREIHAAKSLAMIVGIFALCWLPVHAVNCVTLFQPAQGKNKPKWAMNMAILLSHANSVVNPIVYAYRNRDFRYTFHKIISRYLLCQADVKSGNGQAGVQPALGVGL

Turning to `Cc1cccc(CNc2nc3c(-c4ccncc4C)c(-c4cccc(C#N)c4)nc(N)n3n2)n1` [Example 68, 3-(5-amino-2-(((6-methylpyridin-2-yl)methyl)amino)-8-(3-methylpyridin-4-yl)-[1,2,4]triazolo[1,5-c]pyrimidin-7-yl)benzonitrile], in experiment [1], the pKi is at least 8.00. Further, in experiment [2], the pEC50 is at least 8.00.
As for `Cc1cnccc1-c1c(-c2cccc(C#N)c2)nc(N)n2nc(OCc3ncccc3C)nc12` [Example 20, 3-(5-amino-2-((3-methylpyridin-2-yl)methoxy)-8-(3-methylpyridin-4-yl)-[1,2,4]triazolo[1,5-c]pyrimidin-7-yl)benzonitrile], in experiment [1], the pKi was at least 8.00. Further, the pEC50 in experiment [2] is at least 8.00.
For the compound `Cn1cc(-c2c(-c3cccc(C#N)c3)nc(N)n3nc(Cn4nnnc4-n4cccn4)nc23)ccc1=O` [Example 5, 3-(2-((5-(1H-pyrazol-1-yl)-1H-tetrazol-1-yl)methyl)-5-amino-8-(1-methyl-6-oxo-1,6-dihydropyridin-3-yl)-[1,2,4]triazolo[1,5-c]pyrimidin-7-yl)benzonitrile], in experiment [1], the pKi was at least 8.00. Besides, the pEC50 in experiment [2] was 7.00 to 8.00.
`Cc1cc(-c2c(-c3cccc(C#N)c3)nc(N)n3nc(NCc4cccc(C)n4)nc23)cc(C)n1` [Example 69, 3-(5-amino-8-(2,6-dimethylpyridin-4-yl)-2-(((6-methylpyridin-2-yl)methyl)amino)-[1,2,4]triazolo[1,5-c]pyrimidin-7-yl)benzonitrile]: the pKi in experiment [1] is at least 8.00. Moreover, the pEC50 in experiment [2] was under 6.00.
In the same order, the values of `Cc1cccc(-c2nnnn2Cc2nc3c(-c4ccncn4)c(-c4cccc(C#N)c4)nc(N)n3n2)n1` [Example 2, 3-(5-amino-2-((5-(6-methylpyridin-2-yl)-1H-tetrazol-1-yl)methyl)-8-(pyrimidin-4-yl)-[1,2,4]triazolo[1,5-c]pyrimidin-7-yl)benzonitrile] are at least 8.00 and at least 8.00.
In the same order, the values of `N#Cc1cccc(-c2nc(N)n3nc(Cc4c(F)cccc4-c4ccnc(N)c4)nc3c2-c2ccnc(N)c2)c1` [Example 14, 3-(5-amino-8-(2-aminopyridin-4-yl)-2-(2-(2-aminopyridin-4-yl)-6-fluorobenzyl)-[1,2,4]triazolo[1,5-c]pyrimidin-7-yl)benzonitrile] are at least 8.00 and at least 8.00.
In the same order, the values of `N#Cc1cccc(-c2nc(N)n3nc(COc4ncccc4C#N)nc3c2-c2ccncn2)c1` [Example 42, 2-((5-amino-7-(3-cyanophenyl)-8-(pyrimidin-4-yl)-[1,2,4]triazolo[1,5-c]pyrimidin-2-yl)methoxy)nicotinonitrile] are at least 8.00 and at least 8.00.
In the case of `Cc1cccc(CNc2nc3c(-c4ccncn4)c(-c4cccc(C#N)c4)nc(N)n3n2)n1` [Example 65, 3-(5-amino-2-(((6-methylpyridin-2-yl)methyl)amino)-8-(pyrimidin-4-yl)-[1,2,4]triazolo[1,5-c]pyrimidin-7-yl)benzonitrile], the pKi in experiment [1] is at least 8.00. Also, the pEC50 in experiment [2] is 7.00 to 8.00.
In the same order, the values of `Cc1cc(-c2c(-c3cccc(C#N)c3)nc(N)n3nc(COc4ncccc4C#N)nc23)cc(C)n1` [Example 46, 2-((5-amino-7-(3-cyanophenyl)-8-(2,6-dimethylpyridin-4-yl)-[1,2,4]triazolo[1,5-c]pyrimidin-2-yl)methoxy)nicotinonitrile] are at least 8.00 and 6.00 to 7.00.
In the same order, the values of `N#Cc1cccc(-c2nc(N)n3nc(Cn4nnnc4-c4cccc(N)c4)nc3c2-c2ccncn2)c1` [Example 1, 3-(5-amino-2-((5-(3-aminophenyl)-1H-tetrazol-1-yl)methyl)-8-(pyrimidin-4-yl)-[1,2,4]triazolo[1,5-c]pyrimidin-7-yl)benzonitrile] are at least 8.00 and at least 8.00.
On to `N#Cc1cccc(-c2nc(N)n3nc(Cn4nnnc4-c4ccncc4)nc3c2-c2ccncn2)c1` [Example 54, 3-(5-amino-2-((5-(pyridin-4-yl)-1H-tetrazol-1-yl)methyl)-8-(pyrimidin-4-yl)-[1,2,4]triazolo[1,5-c]pyrimidin-7-yl)benzonitrile], for which, in experiment [1], the pKi is at least 8.00. Also, the pEC50 in experiment [2] is at least 8.00.
Turning to `COc1cccc(-c2nnnn2Cc2nc3c(-c4ccncn4)c(-c4cccc(C#N)c4)nc(N)n3n2)n1` [Example 3, 3-(5-amino-2-((5-(6-methoxypyridin-2-yl)-1H-tetrazol-1-yl)methyl)-8-(pyrimidin-4-yl)-[1,2,4]triazolo[1,5-c]pyrimidin-7-yl)benzonitrile], in experiment [1], the pKi was at least 8.00. In addition, the pEC50 in experiment [2] is 7.00 to 8.00.
Consider `Cn1nc(-c2c(-c3cccc(C#N)c3)nc(N)n3nc(Cn4nnnc4-c4ccccn4)nc23)ccc1=O` [Example 9, 3-(5-amino-8-(1-methyl-6-oxo-1,6-dihydropyridazin-3-yl)-2-((5-(pyridin-2-yl)-1H-tetrazol-1-yl)methyl)-[1,2,4]triazolo[1,5-c]pyrimidin-7-yl)benzonitrile], for which the pKi in experiment [1] was at least 8.00. In experiment [2], the pEC50 is 7.00 to 8.00.
In the same order, the values of `N#Cc1cccc(-c2nc(N)n3nc(OCc4ncccc4F)nc3c2-c2ccncn2)c1` [Example 28, 3-(5-amino-2-((3-fluoropyridin-2-yl)methoxy)-8-(pyrimidin-4-yl)-[1,2,4]triazolo[1,5-c]pyrimidin-7-yl)benzonitrile] are at least 8.00 and at least 8.00.
For `Cn1nc(-c2c(-c3cccc(C#N)c3)nc(N)n3nc(OCc4ncccc4F)nc23)ccc1=O` [Example 30, 3-(5-amino-2-((3-fluoropyridin-2-yl)methoxy)-8-(1-methyl-6-oxo-1,6-dihydropyridazin-3-yl)-[1,2,4]triazolo[1,5-c]pyrimidin-7-yl)benzonitrile], the pKi in experiment [1] is at least 8.00. Moreover, the pEC50 in experiment [2] was at least 8.00.
With `Cc1cccc(COc2nc3c(-c4ccc(=O)n(C)c4)c(-c4cccc(C#N)c4)nc(N)n3n2)n1` [Example 55, 3-(5-amino-8-(1-methyl-6-oxo-1,6-dihydropyridin-3-yl)-2-((6-methylpyridin-2-yl)methoxy)-[1,2,4]triazolo[1,5-c]pyrimidin-7-yl)benzonitrile], the pKi in experiment [1] is at least 8.00. Besides, in experiment [2], the pEC50 was 7.00 to 8.00.
As for `Cc1cccnc1CNc1nc2c(-c3ccc(=O)n(C)n3)c(-c3cccc(C#N)c3)nc(N)n2n1` [Example 17, 3-(5-amino-8-(1-methyl-6-oxo-1,6-dihydropyridazin-3-yl)-2-(((3-methylpyridin-2-yl)methyl)amino)-[1,2,4]triazolo[1,5-c]pyrimidin-7-yl)benzonitrile], the pKi in experiment [1] was at least 8.00. Besides, the pEC50 in experiment [2] was at least 8.00.
`Cn1cc(-c2c(-c3cccc(C#N)c3)nc(N)n3nc(Cn4nnnc4-c4cnccn4)nc23)ccc1=O` [Example 8, 3-(5-amino-8-(1-methyl-6-oxo-1,6-dihydropyridin-3-yl)-2-((5-(pyrazin-2-yl)-1H-tetrazol-1-yl)methyl)-[1,2,4]triazolo[1,5-c]pyrimidin-7-yl)benzonitrile]: the pKi in experiment [1] is at least 8.00. Besides, the pEC50 in experiment [2] is 7.00 to 8.00.
In the same order, the values of `Cc1cccnc1CNc1nc2c(-c3ccc(=O)n(C)n3)c(-c3cccc(C#N)c3F)nc(N)n2n1` [Example 25, 3-(5-amino-8-(1-methyl-6-oxo-1,6-dihydropyridazin-3-yl)-2-(((3-methylpyridin-2-yl)methyl)amino)-[1,2,4]triazolo[1,5-c]pyrimidin-7-yl)-2-fluorobenzonitrile] are at least 8.00 and at least 8.00.
